Measured values: US9012489B2, “Phenyl-3-aza-bicyclo[3.1.0]hex-3-yl-methanones and the use thereof as medicament” (Boehringer Ingelheim International GmbH, priority 2011, dated 2015)

These compounds were tested against T1, GlyT1 transporter (Homo sapiens, UniProt P48067) (assay: GlyT1 assay: 3H-glycine uptake into SK-N-MC cells (Cytostar-T format)). Conditions: glycine uptake in human SK-N-MC cells endogenously expressing GlyT1; 500 nM glycine, 1% DMSO, signal recorded over 60 min.
T1 construct: endogenously expressing the GlyT1 transporter; host or cells: SK-N-MC human neuroblastoma cells
T1 sequence (P48067 1-706): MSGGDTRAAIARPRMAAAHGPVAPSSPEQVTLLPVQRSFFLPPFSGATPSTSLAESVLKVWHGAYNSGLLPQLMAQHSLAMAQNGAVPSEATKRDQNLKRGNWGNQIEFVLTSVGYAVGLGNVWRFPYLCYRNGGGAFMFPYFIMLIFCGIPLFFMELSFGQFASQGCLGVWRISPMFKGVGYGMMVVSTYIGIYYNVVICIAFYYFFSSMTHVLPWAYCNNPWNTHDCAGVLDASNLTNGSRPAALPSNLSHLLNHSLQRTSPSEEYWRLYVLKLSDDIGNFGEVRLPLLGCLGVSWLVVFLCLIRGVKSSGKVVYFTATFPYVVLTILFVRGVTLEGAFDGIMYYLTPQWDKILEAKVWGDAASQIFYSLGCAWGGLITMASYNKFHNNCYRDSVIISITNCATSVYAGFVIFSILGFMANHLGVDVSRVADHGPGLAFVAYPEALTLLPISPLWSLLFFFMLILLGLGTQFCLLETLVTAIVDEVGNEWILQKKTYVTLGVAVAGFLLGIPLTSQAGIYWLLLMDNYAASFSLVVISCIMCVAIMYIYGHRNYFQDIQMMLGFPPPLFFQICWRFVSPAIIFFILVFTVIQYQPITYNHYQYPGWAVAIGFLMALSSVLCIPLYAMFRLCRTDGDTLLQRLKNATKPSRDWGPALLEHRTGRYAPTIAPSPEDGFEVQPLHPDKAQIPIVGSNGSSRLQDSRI
Format: cell-based
Summary of the method: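 Uptake slopes, measured over 60 min from the linear kinetic range, give IC50 from 8 compound concentrations, with 10 μM RG-1678 setting background. Substrate is 500 nM glycine (250 nM ³H, 250 nM unlabelled) in HBSS/5 mM alanine, 1% DMSO, after roughly 5-10 min compound preincubation. Cells: confluent SK-N-MC endogenously expressing human GlyT1.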

Compared with `CC(C)Oc1ccc(S(C)(=O)=O)cc1C(=O)N1CC2CC2(c2nc(C3(C(F)(F)F)CC3)no2)C1` (racemic) [Example 154, (2-Isopropoxy-5-methanesulfonyl-phenyl)-{1-[3-(1-trifluoromethyl-cyclopropyl)-[1,2,4]oxadiazol-5-yl]-3-aza-bicyclo[3.1.0]hex-3-yl}-methanone], `C[C@H](Oc1ccc(S(C)(=O)=O)cc1C(=O)N1CC2CC2(c2nc(C3(C(F)(F)F)CC3)no2)C1)C(F)(F)F` (mixture of isomers) [Example 155, [5-Methanesulfonyl-2-(2,2,2-trifluoro-1-methyl-ethoxy)-phenyl]-{1-[3-(1-trifluoromethyl-cyclopropyl)-[1,2,4]oxadiazol-5-yl]-3-aza-bicyclo[3.1.0]hex-3-yl}-methanone] is 2-fold lower in IC50: 0.072 µM for the first, 0.036 µM for the second.

First: Cc1c(C23CC2CN(C(=O)c2cc(S(C)(=O)=O)ccc2O[C@H](C)C(F)(F)F)C3)noc1C(F)(F)F (single isomer, unassigned) [Example 162]
Second: C[C@H](Oc1ccc(S(C)(=O)=O)cc1C(=O)N1CC2CC2(c2noc(C(F)(F)F)n2)C1)C(F)(F)F (mixture of isomers) [Example 1, [5-Methanesulfonyl-2-(2,2,2-trifluoro-1-methyl-ethoxy)-phenyl]-[1-(5-trifluoromethyl-[1,2,4]oxadiazol-3-yl)-3-aza-bicyclo[3.1.0]hex-3-yl]-methanone]
The IC50 of the first is 9.9-fold higher: 0.387 µM for the first, 0.039 µM for the second. The second is the more potent here.

Compared with `Cc1conc1C12CC1CN(C(=O)c1cc(S(C)(=O)=O)ccc1O[C@@H](C)C(F)(F)F)C2` (mixture of isomers) [Example 108, [5-Methanesulfonyl-2-(2,2,2-trifluoro-1-methyl-ethoxy)-phenyl]-[1-(4-methyl-isoxazol-3-yl)-3-aza-bicyclo[3.1.0]hex-3-yl]-methanone], `Cc1noc(C23CC2CN(C(=O)c2cc(S(C)(=O)=O)ccc2O[C@H](C)C(F)(F)F)C3)n1` (mixture of isomers) [Example 35, [5-Methanesulfonyl-2-(2,2,2-trifluoro-1-methyl-ethoxy)-phenyl]-[1-(3-methyl-[1,2,4]oxadiazol-5-yl)-3-aza-bicyclo[3.1.0]hex-3-yl]-methanone] is 10-fold higher in IC50: 0.01 µM for the first, 0.101 µM for the second. The first is the more potent here.

First: C[C@@H](Oc1ccc(S(C)(=O)=O)cc1C(=O)N1CC2CC2(c2csc(C(F)(F)F)n2)C1)C(F)(F)F (mixture of isomers) [Example 29, [5-Methanesulfonyl-2-(2,2,2-trifluoro-1-methyl-ethoxy)-phenyl]-[1-(2-trifluoromethyl-thiazol-4-yl)-3-aza-bicyclo[3.1.0]hex-3-yl]-methanone]
Second: Cc1nc(C23CC2CN(C(=O)c2cc(S(C)(=O)=O)ccc2O[C@@H](C)C(F)(F)F)C3)cs1 (mixture of isomers) [Example 25, [5-Methanesulfonyl-2-(2,2,2-trifluoro-1-methyl-ethoxy)-phenyl]-[1-(2-methyl-thiazol-4-yl)-3-aza-bicyclo[3.1.0]hex-3-yl]-methanone]
The IC50 of the first is 2-fold lower: 0.011 µM for the first, 0.022 µM for the second. The first is the more potent here.

First: CCS(=O)(=O)c1ccc(O[C@H](C)C(F)(F)F)c(C(=O)N2CC3CC3(c3nccc(C(F)(F)F)n3)C2)c1 (single isomer, unassigned) [Example 77, [5-Ethanesulfonyl-2-(2,2,2-trifluoro-1-methyl-ethoxy)-phenyl]-[1-(4-trifluoromethyl-pyrimidin-2-yl)-3-aza-bicyclo[3.1.0]hex-3-yl]-methanone]
Second: CCS(=O)(=O)c1ccc(O[C@H](C)C(F)(F)F)c(C(=O)N2CC3CC3(c3noc(C(F)(F)F)n3)C2)c1 (single isomer, unassigned) [Example 93, [5-Ethanesulfonyl-2-(2,2,2-trifluoro-1-methyl-ethoxy)-phenyl]-[1-(5-trifluoromethyl-[1,2,4]oxadiazol-3-yl)-3-aza-bicyclo[3.1.0]hex-3-yl]-methanone]
The IC50 of the first is 10-fold higher: 0.113 µM for the first, 0.011 µM for the second.

First: C[C@H](Oc1ccc(C#N)cc1C(=O)N1CC2CC2(c2noc(C(F)(F)F)n2)C1)C(F)(F)F (mixture of isomers) [Example 88, 4-(2,2,2-Trifluoro-1-methyl-ethoxy)-3-[1-(5-trifluoromethyl-[1,2,4]oxadiazol-3-yl)-3-aza-bicyclo[3.1.0]hexane-3-carbonyl]-benzonitrile]
Second: C[C@H](Oc1ccc(S(C)(=O)=O)cc1C(=O)N1CC2CC2(c2noc(C3(C(F)(F)F)CC3)n2)C1)C(F)(F)F (mixture of isomers) [Example 65, [5-Methanesulfonyl-2-(2,2,2-trifluoro-1-methyl-ethoxy)-phenyl]-{1-[5-(1-trifluoromethyl-cyclopropyl)-[1,2,4]oxadiazol-3-yl]-3-aza-bicyclo[3.1.0]hex-3-yl}-methanone]
The IC50 of the first is 19-fold higher: 0.168 µM for the first, 0.009 µM for the second. The second is the more potent here.

Compared with `C[C@H](Oc1ccc(S(C)(=O)=O)cc1C(=O)N1CC2CC2(c2cccc(C(F)(F)F)n2)C1)C(F)(F)F` (mixture of isomers) [Example 54, [5-Methanesulfonyl-2-(2,2,2-trifluoro-1-methyl-ethoxy)-phenyl]-[1-(6-trifluoromethyl-pyridin-2-yl)-3-aza-bicyclo[3.1.0]hex-3-yl]-methanone], `C[C@@H](Oc1ccc(S(C)(=O)=O)cc1C(=O)N1CC2CC2(c2nc(C(F)(F)F)co2)C1)C(F)(F)F` (mixture of isomers) [Example 113, [5-Methanesulfonyl-2-(2,2,2-trifluoro-1-methyl-ethoxy)-phenyl]-[1-(4-trifluoromethyl-oxazol-2-yl)-3-aza-bicyclo[3.1.0]hex-3-yl]-methanone] is 14-fold higher in IC50: 0.016 µM for the first, 0.216 µM for the second. The first is the more potent here.

Going from `C[C@H](Oc1ccc(S(C)(=O)=O)cc1C(=O)N1CC2(C)CC2(c2noc(C(F)(F)F)n2)C1)C(F)(F)F` (single isomer, unassigned) [Example 159, [5-Methanesulfonyl-2-(2,2,2-trifluoro-1-methyl-ethoxy)-phenyl]-[1-methyl-5-(5-trifluoromethyl-[1,2,4]oxadiazol-3-yl)-3-aza-bicyclo[3.1.0]hex-3-yl]-methanone] to `Cc1nc(C23CC2CN(C(=O)c2cc(S(C)(=O)=O)ccc2O[C@@H](C)C(F)(F)F)C3)no1` (single isomer, unassigned) [Example 7, [5-Methanesulfonyl-2-(2,2,2-trifluoro-1-methyl-ethoxy)-phenyl]-[1-(5-methyl-[1,2,4]oxadiazol-3-yl)-3-aza-bicyclo[3.1.0]hex-3-yl]-methanone], the IC50 falls from 0.953 µM to 0.004 µM (240-fold).

First: CCS(=O)(=O)c1ccc(O[C@H](C)C(F)(F)F)c(C(=O)N2CC3CC3(c3cc(C(F)(F)F)on3)C2)c1 (single isomer, unassigned) [Example 106, [5-Ethanesulfonyl-2-(2,2,2-trifluoro-1-methyl-ethoxy)-phenyl]-[1-(5-trifluoromethyl-isoxazol-3-yl)-3-aza-bicyclo[3.1.0]hex-3-yl]-methanone]
Second: Cc1noc(C23CC2CN(C(=O)c2cc(S(C)(=O)=O)ccc2O[C@@H](C)C(F)(F)F)C3)n1 (mixture of isomers) [Example 34, [5-Methanesulfonyl-2-(2,2,2-trifluoro-1-methyl-ethoxy)-phenyl]-[1-(3-methyl-[1,2,4]oxadiazol-5-yl)-3-aza-bicyclo[3.1.0]hex-3-yl]-methanone]
The IC50 of the first is 2.5-fold higher: 0.248 µM for the first, 0.098 µM for the second.

`C[C@@H](Oc1ccc(S(C)(=O)=O)cc1C(=O)N1CC2CC2(c2noc(C3CC3)n2)C1)C(F)(F)F` (mixture of isomers) [Example 41, [1-(5-Cyclopropyl-[1,2,4]oxadiazol-3-yl)-3-aza-bicyclo[3.1.0]hex-3-yl]-[5-methanesulfonyl-2-(2,2,2-trifluoro-1-methyl-ethoxy)-phenyl]-methanone] and `C[C@@H](Oc1ccc(S(C)(=O)=O)cc1C(=O)N1CC2CC2(c2coc(C3CC3)n2)C1)C(F)(F)F` (mixture of isomers) [Example 81, [1-(2-Cyclopropyl-oxazol-4-yl)-3-aza-bicyclo[3.1.0]hex-3-yl]-[5-methanesulfonyl-2-((S)-2,2,2-trifluoro-1-methyl-ethoxy)-phenyl]-methanone] are the same in IC50: 0.006 µM for the first, 0.006 µM for the second.

Going from `C[C@H](Oc1ccc(S(C)(=O)=O)cc1C(=O)N1CC2CC2(c2nnc(C3CC3)o2)C1)C(F)(F)F` (mixture of isomers) [Example 147, [1-(5-Cyclopropyl-[1,3,4]oxadiazol-2-yl)-3-aza-bicyclo[3.1.0]hex-3-yl]-[5-methanesulfonyl-2-(2,2,2-trifluoro-1-methyl-ethoxy)-phenyl]-methanone] to `C[C@@H](Oc1ccc(S(C)(=O)=O)cc1C(=O)N1CC2CC2(c2nnc(C3(C(F)(F)F)CC3)o2)C1)C(F)(F)F` (mixture of isomers) [Example 148, [5-Methanesulfonyl-2-(2,2,2-trifluoro-1-methyl-ethoxy)-phenyl]-{1-[5-(1-trifluoromethyl-cyclopropyl)-[1,3,4]oxadiazol-2-yl]-3-aza-bicyclo[3.1.0]hex-3-yl}-methanone], the IC50 falls from 0.018 µM to 0.009 µM (2-fold).

`C[C@H](Oc1ccc(C#N)cc1C(=O)N1CC2CC2(c2noc(C(F)(F)F)n2)C1)C(F)(F)F` (single isomer, unassigned) [Example 90, 4-(2,2,2-Trifluoro-1-methyl-ethoxy)-3-[1-(5-trifluoromethyl-[1,2,4]oxadiazol-3-yl)-3-aza-bicyclo[3.1.0]hexane-3-carbonyl]-benzonitrile] showed an IC50 of 2.25 µM.
